Test results: PubChem BioAssay (NCI)
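These data come from cells grown in 96-well plates and exposed to compound for 48 hours at five concentrations. At the TGI there is no net growth.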

Tests used:
Test in all cases: NCI anticancer screen, dose series, 48 h
786-0 renal = tested on: 786-0 renal
NCI-H522 lung = tested on: NCI-H522 lung
IGROV1 ovarian = tested on: IGROV1 ovarian
A498 renal = tested on: A498 renal
U251 CNS = tested on: U251 CNS
EKVX NSCLC = tested on: EKVX NSCLC
MDA-MB-231 breast = tested on: MDA-MB-231 breast
HS 578T breast = tested on: HS 578T breast
HCT-116 colon = tested on: HCT-116 colon
SK-OV-3 ovarian = tested on: SK-OV-3 ovarian
NCI-H460 lung = tested on: NCI-H460 lung
MDA-MB-435 = tested on: MDA-MB-435
MDA-N = tested on: MDA-N
SW-620 colon = tested on: SW-620 colon
SNB-19 CNS = tested on: SNB-19 CNS
A549 NSCLC = tested on: A549 NSCLC
HOP-62 NSCLC = tested on: HOP-62 NSCLC
MALME-3M melanoma = tested on: MALME-3M melanoma
UO-31 renal = tested on: UO-31 renal
SR leukemia = tested on: SR leukemia

Structure (SMILES) | TGI (786-0 renal) [µM] | TGI (NCI-H522 lung) [µM] | TGI (IGROV1 ovarian) [µM] | TGI (A498 renal) [µM] | TGI (U251 CNS) [µM] | TGI (EKVX NSCLC) [µM] | TGI (MDA-MB-231 breast) [µM] | TGI (HS 578T breast) [µM] | TGI (HCT-116 colon) [µM] | TGI (SK-OV-3 ovarian) [µM] | TGI (NCI-H460 lung) [µM] | TGI (MDA-MB-435) [µM] | TGI (MDA-N) [µM] | TGI (SW-620 colon) [µM] | TGI (SNB-19 CNS) [µM] | TGI (A549 NSCLC) [µM] | TGI (HOP-62 NSCLC) [µM] | TGI (MALME-3M melanoma) [µM] | TGI (UO-31 renal) [µM] | TGI (SR leukemia) [µM]
CCOP(=O)(OCC)[C@H]1OC(C)(C)O[C@@H]1CO | > 100 | > 100 | > 100 | > 100 | > 100 | > 100 | > 100 | > 100 | > 100 | > 100 | > 100 | > 100 | > 100 | > 100 | > 100 | > 100 | > 100 | > 100 | – | –
O=S(=O)(c1ccccc1)C1(CCC2OCCO2)C=CC2(CC1)OCCO2 (centres undefined) | > 100 | – | > 100 | > 100 | > 100 | > 100 | > 100 | – | > 100 | > 100 | > 100 | > 100 | > 100 | > 100 | > 100 | > 100 | > 100 | > 100 | > 100 | > 100
CSc1nc(SC)c2ncn(C3CC(Oc4ccc(C)cc4)C(COc4ccc(C)cc4)O3)c2n1 (centres undefined) | > 100 | > 100 | > 100 | > 100 | > 100 | > 100 | > 100 | > 100 | > 100 | > 100 | > 100 | > 100 | > 100 | > 100 | > 100 | > 100 | > 100 | > 100 | 7.61 | –
CNC(=O)CN(C)C(=O)CCC(=O)N(C)C | > 100 | > 100 | > 100 | > 100 | > 100 | > 100 | > 100 | > 100 | > 100 | > 100 | > 100 | > 100 | > 100 | > 100 | > 100 | > 100 | > 100 | > 100 | > 100 | –
COC(=O)c1c2c(cc3c1CC1(Cc4cc5c(cc4C1=O)CCC5)C3)CCC2 (centres undefined) | > 100 | > 100 | > 100 | > 100 | > 100 | > 100 | > 100 | > 100 | > 100 | 93.8 | > 100 | > 100 | > 100 | > 100 | > 100 | > 100 | > 100 | > 100 | > 100 | –
CC(C)SC(NC(=O)C1C(C)(C)CCC1(C)C)C(=O)O (centres undefined) | > 100 | – | > 100 | > 100 | > 100 | > 100 | > 100 | > 100 | > 100 | > 100 | > 100 | > 100 | > 100 | > 100 | > 100 | > 100 | > 100 | – | > 100 | –
Cc1ccc(/C=C2\Cc3cccc(C)c3C2=O)c(C(=O)O)c1 | > 100 | 60.8 | > 100 | > 100 | > 100 | > 100 | > 100 | > 100 | > 100 | – | > 100 | – | > 100 | > 100 | > 100 | > 100 | > 100 | > 100 | 31.4 | > 100
CC(C)(C)OC(=O)C1CC[C@@H](CC(=O)Oc2ccc([N+](=O)[O-])cc2)N1 (some centres undefined) | > 100 | > 100 | > 100 | > 100 | > 100 | > 100 | > 100 | – | > 100 | > 100 | > 100 | > 100 | > 100 | > 100 | > 100 | > 100 | – | > 100 | > 100 | > 100
CCOC(=O)C1=CC(C)(C(=O)OCC)Nc2c(nc(OC)[nH]c2=O)N1 (centres undefined) | > 10 | > 10 | > 10 | > 10 | > 10 | > 10 | > 10 | > 10 | > 10 | > 10 | > 10 | – | > 10 | > 10 | > 10 | > 10 | > 10 | > 10 | > 10 | –
